Source: publication PMC10609273, “Radiosynthesis and Early Evaluation of a Positron Emission Tomography Imaging Probe [^18F]AGAL Targeting Alpha-Galactosidase A Enzyme for Fabry Disease” (Molecules, 2023)

Assays:
Assay in all cases: Reversible CYP inhibition in pooled HLMs
Format in all cases: in vitro ADME
[1] = target: T1, CYP1A2 (Homo sapiens, UniProt P05177); conditions: 30 µM compound, substrate phenacetin
T1 construct: from tissue; host or cells: pooled human liver microsomes (n = 200)
T1 sequence (P05177 1-516): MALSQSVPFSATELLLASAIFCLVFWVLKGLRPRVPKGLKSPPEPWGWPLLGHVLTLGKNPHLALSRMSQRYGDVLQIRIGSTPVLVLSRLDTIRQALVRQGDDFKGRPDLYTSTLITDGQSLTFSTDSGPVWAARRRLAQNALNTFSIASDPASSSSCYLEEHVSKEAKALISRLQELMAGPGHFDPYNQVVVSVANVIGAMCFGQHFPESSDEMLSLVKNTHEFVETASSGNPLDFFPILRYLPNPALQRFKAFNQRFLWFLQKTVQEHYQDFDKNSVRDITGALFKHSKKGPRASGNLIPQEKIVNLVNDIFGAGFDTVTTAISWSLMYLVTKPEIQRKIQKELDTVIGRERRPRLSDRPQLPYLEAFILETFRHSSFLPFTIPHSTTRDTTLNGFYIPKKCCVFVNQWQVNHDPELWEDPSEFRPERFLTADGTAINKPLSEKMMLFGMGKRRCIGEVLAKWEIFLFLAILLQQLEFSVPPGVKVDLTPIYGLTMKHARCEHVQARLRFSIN
Experimental: (§1) All chemicals and reagents including control compounds were purchased from commercial sources such as Sigma-Aldrich or Toronto Research Chemicals. The test article was tested for reversible inhibition of CYPs in human liver microsomes (HLM) (0.2 mg/mL protein) at a concentration range of 0–30 μM. Each condition was incubated in duplicate. The test article (0–30 μM), NADPH, and the CYP-selective probe substrate were incubated in a 96-well plate at 37 °C in 0.1 M potassium phosphate buffer, pH 7.4. The reactions were initiated by adding the HLMs. The total reaction volume was 100 μL.
(§2) After the incubation period (10 min for CYP1A2, 2B6, and 2C9; 15 min for CYP2C19; and 4 min for CYP2C8 and 2D6 to accommodate linear kinetic conditions) at 37 °C, the reactions were terminated by the addition of 100 μL of ice-cold acetonitrile-containing carbutamide as an IS, then centrifuged at 2500× g for 10 min at 2 °C. A 150 μL aliquot of supernatant for each CYP assay, except for CYP1A2, was then transferred to a new plate for analysis. For CYP1A2, 80 μL of supernatant was transferred to the plate and further diluted with 80 μL of water before analysis. All samples were analyzed with liquid chromatography with tandem mass spectrometry (LC–MS/MS).

[2] = target: T2, CYP2B6 (Homo sapiens, UniProt P20813); conditions: 30 µM compound, substrate bupropion
T2 construct: from tissue; host or cells: pooled human liver microsomes (n = 200)
T2 sequence (P20813 1-491): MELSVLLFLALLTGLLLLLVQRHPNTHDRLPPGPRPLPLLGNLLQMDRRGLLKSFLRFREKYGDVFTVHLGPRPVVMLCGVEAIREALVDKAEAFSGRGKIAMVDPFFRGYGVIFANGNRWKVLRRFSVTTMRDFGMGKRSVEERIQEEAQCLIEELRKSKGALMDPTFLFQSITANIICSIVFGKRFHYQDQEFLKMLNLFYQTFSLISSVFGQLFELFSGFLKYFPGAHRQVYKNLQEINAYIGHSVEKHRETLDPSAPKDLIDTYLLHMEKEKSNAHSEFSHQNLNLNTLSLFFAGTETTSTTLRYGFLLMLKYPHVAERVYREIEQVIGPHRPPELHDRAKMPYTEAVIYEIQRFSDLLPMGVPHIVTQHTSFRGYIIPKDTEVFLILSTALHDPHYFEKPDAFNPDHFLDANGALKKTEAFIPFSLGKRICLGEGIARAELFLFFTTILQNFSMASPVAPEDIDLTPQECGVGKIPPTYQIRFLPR
Experimental: as §1, §2

[3] = target: T3, CYP2C19 (Homo sapiens, UniProt P33261); conditions: 30 µM compound, substrate S-mephenytoin
T3 construct: from tissue; host or cells: pooled human liver microsomes (n = 200)
Experimental: as §1, §2

[4] = target: T4, CYP2C8 (Homo sapiens, UniProt P10632); conditions: 30 µM compound, substrate amodiaquine
T4 construct: from tissue; host or cells: pooled human liver microsomes (n = 200)
T4 sequence (P10632 1-490): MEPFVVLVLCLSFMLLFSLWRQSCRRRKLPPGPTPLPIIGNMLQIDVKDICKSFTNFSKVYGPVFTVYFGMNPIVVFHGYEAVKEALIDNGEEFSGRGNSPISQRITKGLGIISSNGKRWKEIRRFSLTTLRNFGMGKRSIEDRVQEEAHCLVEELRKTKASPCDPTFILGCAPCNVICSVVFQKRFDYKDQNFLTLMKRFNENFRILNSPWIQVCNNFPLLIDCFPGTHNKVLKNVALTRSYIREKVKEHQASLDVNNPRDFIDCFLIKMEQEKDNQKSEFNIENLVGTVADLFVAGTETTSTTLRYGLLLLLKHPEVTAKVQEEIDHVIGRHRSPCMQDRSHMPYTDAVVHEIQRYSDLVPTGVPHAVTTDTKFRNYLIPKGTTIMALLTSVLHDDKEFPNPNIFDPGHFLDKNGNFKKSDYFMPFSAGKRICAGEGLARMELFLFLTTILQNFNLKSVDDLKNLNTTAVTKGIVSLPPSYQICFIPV
Experimental: as §1, §2

[5] = target: T5, CYP2C9 (Homo sapiens, UniProt P11712); conditions: 30 µM compound, substrate diclofenac
T5 construct: from tissue; host or cells: pooled human liver microsomes (n = 200)
Experimental: as §1, §2

[6] = target: T6, CYP2D6 (Homo sapiens, UniProt P10635); conditions: 30 µM compound, substrate dextromethorphan
T6 construct: from tissue; host or cells: pooled human liver microsomes (n = 200)
Experimental: as §1, §2

T6 sequence (P10635 whole entry): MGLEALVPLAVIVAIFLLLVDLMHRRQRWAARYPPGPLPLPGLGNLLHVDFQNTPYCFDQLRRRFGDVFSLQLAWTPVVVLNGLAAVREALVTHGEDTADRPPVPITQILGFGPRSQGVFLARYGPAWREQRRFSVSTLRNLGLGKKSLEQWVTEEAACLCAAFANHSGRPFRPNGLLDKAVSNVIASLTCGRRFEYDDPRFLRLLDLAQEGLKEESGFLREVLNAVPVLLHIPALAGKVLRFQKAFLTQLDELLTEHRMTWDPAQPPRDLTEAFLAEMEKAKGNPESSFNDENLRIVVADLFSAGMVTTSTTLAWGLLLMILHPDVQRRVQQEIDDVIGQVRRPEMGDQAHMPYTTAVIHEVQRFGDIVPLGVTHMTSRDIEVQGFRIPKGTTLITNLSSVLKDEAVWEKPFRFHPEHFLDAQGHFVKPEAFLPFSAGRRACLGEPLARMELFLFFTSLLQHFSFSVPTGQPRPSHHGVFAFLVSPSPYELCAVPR
T5 sequence (P11712 whole entry): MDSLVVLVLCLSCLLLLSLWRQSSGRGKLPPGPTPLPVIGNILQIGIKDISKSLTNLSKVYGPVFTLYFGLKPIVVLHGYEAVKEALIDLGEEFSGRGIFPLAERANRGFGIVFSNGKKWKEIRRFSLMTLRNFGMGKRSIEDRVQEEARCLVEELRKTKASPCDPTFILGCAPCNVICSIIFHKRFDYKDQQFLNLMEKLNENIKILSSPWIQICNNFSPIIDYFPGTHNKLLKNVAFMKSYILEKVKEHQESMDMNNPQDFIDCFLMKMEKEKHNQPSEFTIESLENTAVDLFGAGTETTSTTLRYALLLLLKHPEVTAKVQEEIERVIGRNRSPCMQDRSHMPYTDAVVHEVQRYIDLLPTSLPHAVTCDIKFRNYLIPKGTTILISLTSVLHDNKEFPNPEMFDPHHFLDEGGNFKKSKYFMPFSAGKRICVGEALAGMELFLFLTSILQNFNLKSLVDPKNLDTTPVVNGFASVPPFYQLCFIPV
T3 sequence (P33261 whole entry): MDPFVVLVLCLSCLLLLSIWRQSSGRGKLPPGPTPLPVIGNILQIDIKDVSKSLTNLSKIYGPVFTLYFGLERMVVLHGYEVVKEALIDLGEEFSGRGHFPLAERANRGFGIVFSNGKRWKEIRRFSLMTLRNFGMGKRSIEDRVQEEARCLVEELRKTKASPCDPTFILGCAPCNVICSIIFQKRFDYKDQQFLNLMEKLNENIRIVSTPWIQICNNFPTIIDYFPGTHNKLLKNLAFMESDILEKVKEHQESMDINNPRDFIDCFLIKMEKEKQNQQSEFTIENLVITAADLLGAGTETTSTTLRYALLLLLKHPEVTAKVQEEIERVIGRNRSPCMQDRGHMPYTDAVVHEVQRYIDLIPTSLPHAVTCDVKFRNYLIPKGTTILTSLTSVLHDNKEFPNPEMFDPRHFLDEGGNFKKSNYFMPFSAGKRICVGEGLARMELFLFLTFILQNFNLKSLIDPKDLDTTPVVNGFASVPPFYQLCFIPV

O=C(CCCCCCCn1cc(CCCF)nn1)N1[C@@H]2[C@H](O)[C@@H](O)[C@@H](O)[C@@H](CO)[C@@H]21 [AGAL]
no significant loss of CYP activity: reversible inhibition of CYP1A2 activity [1] | reversible inhibition of CYP2B6 activity [2] | reversible inhibition of CYP2C19 activity [3] | reversible inhibition of CYP2C8 activity [4] | reversible inhibition of CYP2C9 activity [5] | reversible inhibition of CYP2D6 activity [6]
